These are literature values, as cited in US20070190117A1 (priority 2003, published 2007).

The conditions of the series: galanthamine as hydrobromide or another pharmacologically acceptable salt.

As to `COc1ccc2c3c1O[C@H]1C[C@@H](O)C=C[C@@]31CCN(C)C2` [galanthamine, 4a,5,9,11,12-hexahydro-3-methoxy-11-methyl[6H]-benzofuro-[3a,3,2ef][2]benzazepine-6-ol], the “half life in plasma” value is on record as “approx. 5 h”.
